# In patent US8859284B2, “Delivery of nanoparticles to neurons” (The United States of America, as represented by the …, priority 2009, dated 2014):
# Like-named read-outs stand apart in the source and are kept apart here. Square brackets hold non-standard residues; d marks the D form. Ends that are not written are not given here. Peptide text beside a SMILES is read from it. * marks the point of attachment. Palmitoyl = CCCCCCCCCCCCCCCC(=O)*; Dap = NC[C@H](N)C(=O)O; Aib = CC(C)(N)C(=O)O
# Experiments:
# HEK 293T/17 cells [1] = test system: HEK 293T/17 cells
# Experimental: Cellular toxicity was assessed using the CellTiter 96 Cell Proliferation Assay (Promega, Madison Wis.) according to the manufacturer's instructions. This assay is based upon the conversion of a tetrazolium substrate to a formazan product by viable cells at the assay end point (see reference 24). Cells (1×10^4 cells/well) were cultured in 96-well microtiter plates in complete growth medium in the presence of increasing concentrations of QDs, free peptide or polymer, or QDs in complex with peptide or polymer. In each case, the materials were incubated with the cells for the time required for efficient QD uptake. The materials were subsequently replaced with complete growth medium and the cells were cultured for 72 hours.
# [2] = molecular target: T1, Palmitoyl Protein Thioesterase 1 (PPT1) (Homo sapiens, UniProt P50897); conditions: competitive inhibitors; acidic environments; cited from earlier work
# T1 sequence (P50897 28-306): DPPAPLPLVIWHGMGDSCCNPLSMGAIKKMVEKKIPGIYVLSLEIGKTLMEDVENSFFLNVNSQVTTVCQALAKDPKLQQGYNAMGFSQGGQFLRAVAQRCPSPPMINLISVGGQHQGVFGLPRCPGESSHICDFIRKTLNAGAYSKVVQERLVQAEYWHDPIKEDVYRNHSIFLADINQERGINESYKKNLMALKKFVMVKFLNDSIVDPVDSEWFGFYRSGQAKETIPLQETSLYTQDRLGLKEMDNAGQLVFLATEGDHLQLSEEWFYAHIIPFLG
# HEK 293T/17 cells [3] = assay: FRET monitoring of intracellular stability of polyhistidine-QD association; type: cell-based, Human; conditions: over three days, no QDs present
# Experimental: (§1) Merged images were generated using Adobe PhotoShop.
# To investigate this issue, QD-peptide conjugates were prepared that engaged in FRET and their intracellular interactions were monitored over time. 510 nm DHLA-capped QDs were first assembled with an average of ˜2 Cy3-labeled His6-peptides and then the CPP was added to form the full conjugate (schematic in FIG. 3A). Due to the peptide's small size and proximity of the Cy3 acceptor to the nanocrystal surface, this valence results in a ca. 40% quenching of the QD PL by FRET. The resulting conjugates were delivered to HEK 293T/17 cells and the cells were cultured for three days. QD-donor and Cy3-acceptor FRET interactions over time within the cells were measured by exciting the QD and collecting side-by-side split fluorescence images using the DualView system and deconvoluting the subsequent intensity data. […] When the Cy3/QD emission ratio (normalized and corrected for direct Cy3-acceptor excitation) was calculated a gradual decrease was observed over time, culminating in a 36% decrease over three days (FIG. 3C). […] When Cy3 was delivered to the endosomes as a Cy3-labeled transferrin conjugate (no QDs present), the fluorescence output of the dye decreased approximately 34% over the same time period, in excellent agreement with the decrease observed in the above QD-CPP-Cy3-labeled peptide constructs (FIG. 3D). […]
# HEK 293T/17 cells [4] = assay: Cellular delivery of QDs, intracellular fate by fluorescence microscopy; conditions: summary of QD delivery strategies; some agents also tested in COS-1
# Experimental: Human embryonic kidney (HEK 293T/17) and African green monkey kidney (COS-1) cell lines (ATCC, Manassas, Va.) were cultured in complete growth medium (Dulbecco's Modified Eagle's Medium (DMEM; purchased from ATCC)) supplemented with 1% (v/v) antibiotic/antimycotic and 10% (v/v) heat inactivated fetal bovine serum (ATCC). Cells were cultured in T-25 flasks and incubated at 37° C. under 5% CO2 atmosphere and a subculture was performed every 3-4 days (see reference 13).
# The QD delivery experiments were performed on adherent cells seeded into the wells of Lab-Tek 8-well chambered #1 borosilicate coverglass (Nalge Nunc, Rochester, N.Y.) coated with 2 μg/mL fibronectin. For electroporation and nucleofection, adherent cells were harvested by trypsinization prior to performing QD delivery to cells in suspension. Cells were then seeded to chambered coverglass wells and imaged after cell attachment. The endosomal marker AlexaFluor647-transferrin was included as indicated in the text. For imaging, cells were washed with phosphate buffered saline (PBS, 137 mM NaCl, 10 mM phosphate, 3 mM KCl, pH 7.4), fixed with 3.7% paraformaldehyde in PBS and nuclei were stained with DAPI (Sigma) unless otherwise indicated.
# For electroporation, cells were harvested by trypsinization and recovered for 1 hour in complete growth medium, pelleted, and resuspended in PBS. 510 nm DHLA-PEG QDs (0.5 μM final concentration) were mixed with 1×10^4 cells to a final volume of 100 μL in PBS in a 0.2 mm electroporation cuvette. The cuvette was subjected to 100 V for a 20 ms pulse using a GenePulser XCell electroporator (Bio-Rad, Hercules, Calif.). Cells were resuspended in complete growth medium, seeded into fibronectin-coated 8-well chambered coverglass, fixed and imaged after 24 hrs. For nucleofection delivery, 1×10^6 cells were harvested and resuspended in 100 μL of NUCLEOFECTOR reagent (Amaxa, Gaithersburg, Md.). 510 nm DHLA-PEG QDs were included at a final concentration of 0.4 μM. The cell/QD/reagent mixture was pulsed in the NUCLEOFECTOR using a preset protocol adapted for each specific cell line (20, 21). Cells were cultured and imaged as described for electroporation.
# The INFLUX cell-loading reagent mediates the intracellular release of materials internalized via pinocytic vesicles by delivering the materials to cells in a hypertonic medium followed by the transfer of the cells to a hypotonic medium to induce vesicle disruption (see reference 22). 510 nm DHLA-PEG QDs were diluted to a final concentration of 300-800 nM in the supplied hypertonic delivery media according to manufacturer's instructions and incubated on the cells for 30 min at 37° C. The hypertonic medium was exchanged for hypotonic medium (serum-free culture medium diluted by 40% with deionized water) and incubated on the cells for 3 min. The cells were then recovered in complete growth medium for 30 min and cultured for various lengths of time prior to washing and fixation for imaging.
# 520 nm QDs with a 1:1 mixed surface of DHLA:DHLA-PEG were incubated with LIPOFECTAMINE 2000 for 20 min in serum free medium at a ratio of 1 μL LIPOFECTAMINE 2000 per 1.5 pmol QD. The complexes, at a final QD concentration of 75 nM, were incubated with the cells for 4 hours, removed and replaced with complete growth medium. The cells were then cultured for 24-36 h prior to washing and fixation.
# PEI was incubated with 520 nm mixed surface DHLA:DHLA-PEG QDs in serum free medium at a ratio of 10 μg PEI per 1 pmol QD for 15 min. […] The complexes were then diluted into serum free media to a final QD concentration of 75-100 nM, incubated with cells for 2 h and removed. Cells were then cultured in complete media for 24-36 h, washed and fixed.
# A stock solution of 520 nm DHLA:DHLA-PEG QDs (1 μM in 0.1 M borate buffer, pH 8.9) was diluted to 0.5 μM in HEPES (4-(2-hydroxyethyl)-1-piperazineethanesulfonic acid, pH 8.2).
# HEK 293T/17 cells [5] = conditions: cited from earlier work
# COS-1 cells = assay: Cellular uptake and endosomal escape of QD-peptide assemblies, fluorescence microscopy; type: cell-based, African green monkey; conditions: COS1 cells
# Experimental: as §1
# The peptide assemblies were incubated with COS-1 cells for 1 hr, removed, and the cells were subsequently cultured for 24 hr prior to fixation. An AlexaFluor 647-transferrin (Tf) conjugate was included during the incubation to label the vesicles of the endocytic pathway. Cell nuclei were stained with DAPI.
# HeLa cells = assay: QD uptake and endosomal escape in HeLa cells; type: cell-based; conditions: 163 HeLa cells, Palm-1 conjugated to a QD
# Experimental: The Palm-1 peptide was also tested in HeLa cells, and found to be very effective in promoting endosomal escape.
# [6] = test system: COS-1 and HEK 293T/17 cells; assay: Cellular delivery of QDs, result stated for both cell lines together; type: cell-based, African green monkey; Human; conditions: for intracellular distribution of QDs: both cell lines; for degree of endocytic uptake: compared with Palm-1, 72 h observation
# Source text: as §1
molecule,measurement,setting,value
"CC(C)C[C@H](NC(=O)CNC(=O)[C@H](Cc1c[nH]c2ccccc12)NC(=O)[C@H](Cc1c[nH]cn1)NC(=O)[C@H](Cc1c[nH]cn1)NC(=O)[C@H](Cc1c[nH]cn1)NC(=O)[C@H](Cc1c[nH]cn1)NC(=O)[C@H](Cc1c[nH]cn1)NC(=O)[C@@H](N)Cc1c[nH]cn1)C(=O)N[C@@H](C)C(=O)NC(C)(C)C(=O)N[C@@H](CO)C(=O)NCC(=O)N1CCC[C@H]1C(=O)N[C@@H](CCCCN)C(=O)N[C@@H](CCCCN)C(=O)N[C@@H](CCCCN)C(=O)N[C@@H](CCCNC(=N)N)C(=O)N[C@@H](CCCCN)C(=O)N[C@H](C(=O)O)C(C)C [NLS peptide, reference compound] (H-HHHHHHWGLA[Aib]SGPKKKRKV-OH)",Toxicity,HEK 293T/17 cells [1],minimally toxic
AcG(Pal)DapVKIKK,inhibition of palmitoyl thioesterase,[2],low micromolar affinity
"Cy3-labeled transferrin conjugate: Cy3 delivered to endosomes as labeled transferrin, no QDs",decrease of fluorescence output of the Cy3 dye,HEK 293T/17 cells [3],approximately 34%
GDap(Pal)VKIKK,inhibition of palmitoyl thioesterase,[2],low micromolar range
R9GGLA(Aib)SGWKH6 [CPP peptide],Quantum Dot Fate,HEK 293T/17 cells [4],"Endosomal, QDs punctate"
same,Toxicity,HEK 293T/17 cells [5],minimally toxic
WGDapaVKIKK(P)9GG(H)6 [JB577],Quantum Dot Fate,HEK 293T/17 cells [4],"Cytosolic, QDs dispersed"
same,% Escape in cells with uptake,COS-1 cells; QD-peptide assemblies,77%
same,Overall uptake/escape: uptake,COS-1 cells; first word of the cell,High
same,Overall uptake/escape: escape,COS-1 cells; second word of the cell,high
same,QD uptake,HeLa cells,90%
same,endosomal escape of the cells with uptake,HeLa cells,86%
same,endosomal escape of the total,HeLa cells,77%
same,Toxicity,HEK 293T/17 cells [1],minimally toxic
"WGDapaVKIKKGL(A)4GG(H)6 (WG[Dap](Palmitoyl)VKIKKGLAAAAGGHHHHHH) [Palm-2, No (Pro)9, short linker]",intracellular distribution of QDs,[6],remained completely sequestered within endosomes
same,degree of endocytic uptake,[6],significant reduction in the degree of endocytic uptake
WGDapaVKIKKGLPAAGG(H)6 [Palm-3],intracellular distribution of QDs,[6],remained completely sequestered within endosomes
same,degree of endocytic uptake,[6],significant reduction in the degree of endocytic uptake
